According to patent US20240262848A1, “HETEROCYCLIC COMPOUNDS, COMPOSITIONS THEREOF, AND METHODS OF TREATMENT THEREWITH” (BeiGene, Ltd., priority 2022, published 2024):
pIC50: −log10 of the molar value.

Tests used:
[1] = biological target: GST-tagged GDP-loaded KRAS G12V (amino acids 1-169) (Homo sapiens, UniProt P01116, G12V); experiment: KRAS G12V probe displacement assay (TR-FRET); assay type: binding; conditions: Table 4; KRAS G12V 2 nM, biotinylated probe 2 2.5 nM
Method: Plates are incubated at 24 °C for 1 hr. […] After 1 hr incubation at 24° C.

[2] = test system: pERK1/2(THR202/TYR204) level in SW620 cell line; experiment: KRAS G12V pERK assay in SW620 cells (HTRF); assay type: cell-based; conditions: Homo sapiens, SW-620, Table 4, 2 hrs compound treatment
Method: SW620 cell line was used in this study. Cells were maintained in RPMI 1640 supplemented with 10% fetal bovine serum (Thermo Fisher), 50 units/mL penicillin and streptomycin (Thermo Fisher) and kept at 37° C. in a humidified atmosphere of 5% CO2 in air. Cells were reinstated from frozen stocks that were laid down within 30 passages from the original cells purchased. 40000 cells per well were seeded into a 96-well plate and incubated overnight. Cells were treated with a 10-point dilution series. The final compound concentration is from 0 to 10 μM. After 2 hrs compound treatment, cells were lysed, and the pERK1/2(THR202/TYR204) level in the cell lysates was detected by HTRF kit (Cisbio). In brief, a total of 16 μL of cell lysate from each well of a 96-well plate was transferred to a 384-well white assay plate. Lysate from each well was incubated with 2 μL of Eu3+-cryptate (donor) labeled anti-phospho-ERK1/2 and 2 μL of D)2 (acceptor) labeled anti-phospho-ERK1/2 antibodies (Cisbio) overnight in dark at room temperature. When donor and acceptor are in close proximity, excitation of the donor with laser triggers a Fluorescence Resonance Energy Transfer (FRET) towards the acceptor, which in turn fluoresces at 655 nm wavelength. FRET signals were measured using a PHERAstar FSX reader (BMG Labtech). IC50 determination was performed by fitting the curve of percent inhibition versus the log of the inhibitor concentration using Dotmatics.

GST-tagged GDP-loaded KRAS G12V (amino acids 1-169), sequence (P01116 1-169 isoform P01116-2 G12V): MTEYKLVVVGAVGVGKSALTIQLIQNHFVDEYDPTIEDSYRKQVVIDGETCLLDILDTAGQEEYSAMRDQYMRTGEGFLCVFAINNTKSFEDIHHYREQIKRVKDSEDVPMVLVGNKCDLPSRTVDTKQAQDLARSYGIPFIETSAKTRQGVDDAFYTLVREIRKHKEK

CN1c2nc(OC[C@@]34CCCN3C[C@H](F)C4)nc3c(F)c(-c4cc(N)cc(Cl)c4C(F)(F)F)nc(c23)O[C@@H]2CCC[C@H](O)[C@H]21 (relative stereo) [Example 47, (7aR*,11S*,11aR*)-5-(5-amino-3-chloro-2-(trifluoromethyl)phenyl)-4-fluoro-2-(((2R,7aS)-2-fluorotetrahydro-1H-pyrrolizin-7a(5H)-yl)methoxy)-12-methyl-7a, 8,10,11,11a, 12-hexahydro-9H-7-oxa-1,3,6,12-tetraazapleiaden-11-ol]
pIC50 [1]: 9.21
pIC50 [2]: 7.14

CN1c2nc(OC[C@@]34CCCN3C[C@H](F)C4)nc3c(F)c(-c4cc(N)cc(Cl)c4C(F)(F)F)nc(c23)OC[C@H]2COC[C@@H]21 (single isomer, unassigned) [Example 68 Isomer 1]
pIC50 [1]: 8.74
pIC50 [2]: 7.29

C#Cc1c(F)ccc2cc(O)cc(-c3cc4c5c(nc(OC[C@@]67CCCN6C[C@H](F)C7)nc5c3F)N(C)CCCO4)c12 [Example 1, 5-ethynyl-6-fluoro-4-(11-fluoro-2-(((2R,7aS)-2-fluorotetrahydro-1H-pyrrolizin-7a(5H)-yl)methoxy)-4-methyl-4,5,6,7-tetrahydro-[1,5]oxazocino[4,3,2-de]quinazolin-10-yl)naphthalen-2-ol]
pIC50 [1]: 8.49
pIC50 [2]: 6.20

Cc1cc(N)cc(-c2nc3c4c(nc(OC[C@@]56CCCN5C[C@H](F)C6)nc4c2F)N(C)CCO3)c1C(F)(F)F [Example 3, 3-(4-fluoro-2-(((2R,7aS)-2-fluorotetrahydro-1H-pyrrolizin-7a(5H)-yl)methoxy)-10-methyl-9,10-dihydro-8H-7-oxa-1,3,6,10-tetraazacyclohepta[de]naphthalen-5-yl)-5-methyl-4-(trifluoromethyl)aniline]
pIC50 [1]: 7.82
pIC50 [2]: 6.40

Nc1cc(Cl)c(C(F)(F)F)c(-c2nc3c4c(nc(OC[C@@]56CCCN5C[C@H](F)C6)nc4c2F)N(C2CC2)CCCO3)c1 [Example 4, 3-chloro-5-(11-cyclopropyl-4-fluoro-2-(((2R,7aS)-2-fluorotetrahydro-1H-pyrrolizin-7a(5H)-yl)methoxy)-8,9,10,11-tetrahydro-7-oxa-1,3,6,11-tetraazacycloocta[de]naphthalen-5-yl)-4-(trifluoromethyl)aniline]
pIC50 [1]: 8.09
pIC50 [2]: 6.26

C#Cc1c(F)ccc2cc(O)cc(-c3nc4c5c(nc(OC[C@@]67CCCN6C[C@H](F)C7)nc5c3F)N(C3CC3)CCCO4)c12 [Example 5, 4-(11-cyclopropyl-4-fluoro-2-(((2R,7aS)-2-fluorotetrahydro-1H-pyrrolizin-7a(5H)-yl)methoxy)-8,9,10,11-tetrahydro-7-oxa-1,3,6,11-tetraazacycloocta[de]naphthalen-5-yl)-5-ethynyl-6-fluoronaphthalen-2-ol]
pIC50 [1]: 9.06
pIC50 [2]: 6.54

CC1CCOc2nc(-c3cc(N)cc(Cl)c3C(F)(F)F)c(F)c3nc(OC[C@@]45CCCN4C[C@H](F)C5)nc(c23)N1C (stereo partly drawn) [Example 6, 3-chloro-5-(4-fluoro-2-(((2R,7aS)-2-fluorotetrahydro-1H-pyrrolizin-7a(5H)-yl)methoxy)-10,11-dimethyl-8,9,10,11-tetrahydro-7-oxa-1,3,6,11-tetraazacycloocta[de]naphthalen-5-yl)-4-(trifluoromethyl)aniline]
pIC50 [1]: 8.74
pIC50 [2]: 7.20

Nc1cc(Cl)c(C(F)(F)F)c(-c2nc3c4c(nc(OC[C@@]56CCCN5C[C@H](F)C6)nc4c2F)N(CCO)CCO3)c1 [Example 7, 2-(5-(5-amino-3-chloro-2-(trifluoromethyl)phenyl)-4-fluoro-2-(((2R,7aS)-2-fluorotetrahydro-1H-pyrrolizin-7a(5H)-yl)methoxy)-8,9-dihydro-10H-7-oxa-1,3,6,10-tetraazacyclohepta[de]naphthalen-10-yl)ethan-1-ol]
pIC50 [1]: 8.60
pIC50 [2]: 6.23
